38 compounds from ChEMBL document CHEMBL4602696, “LMP2 Inhibitors as a Potential Treatment for Alzheimer's Disease” (J Med Chem, 2020) can be followed below.

As a reminder, the IC50 is the concentration that gives 50% inhibition. A lower IC50 goes with greater potency in that assay.

The source made the active and inactive calls. No cut-off for these calls is given here.

The nature of assay [1]: Inhibition of LMP7/Beta 5 subunit chymotrypsin-like activity in human RPM18226 cell lysates using Suc-LLVY-AMC as substrate after 1 hr by fluorescence based microplate reader analysis. Type of assay: cell-free. Particulars: rpmi-8226.
Assay [2] deals with T1, Proteasome subunit beta type-9 (Homo sapiens, UniProt P28065).
T1 sequence (P28065 whole entry): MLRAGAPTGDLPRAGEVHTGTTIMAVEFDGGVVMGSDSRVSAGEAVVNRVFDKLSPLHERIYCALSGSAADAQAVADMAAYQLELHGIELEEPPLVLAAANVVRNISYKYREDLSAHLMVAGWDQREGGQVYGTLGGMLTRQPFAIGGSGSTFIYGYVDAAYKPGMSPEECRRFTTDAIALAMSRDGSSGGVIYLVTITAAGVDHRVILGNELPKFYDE
Put plainly: Inhibition of LMP2 in human 20S immunoproteasome using Ac-PAL-AMC as substrate after 1 hr by fluorescence based microplate reader analysis.

Assay [3] addresses T2, Proteasome subunit beta type-8 (Homo sapiens, UniProt P28062).
T2 sequence (P28062 whole entry): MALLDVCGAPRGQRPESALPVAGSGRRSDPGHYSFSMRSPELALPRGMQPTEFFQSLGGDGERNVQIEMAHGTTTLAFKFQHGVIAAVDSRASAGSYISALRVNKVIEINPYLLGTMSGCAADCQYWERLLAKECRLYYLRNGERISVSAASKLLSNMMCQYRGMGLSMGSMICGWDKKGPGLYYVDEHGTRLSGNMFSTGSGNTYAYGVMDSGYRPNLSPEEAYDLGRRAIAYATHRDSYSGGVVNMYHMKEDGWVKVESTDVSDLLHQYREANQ
Briefly: Inhibition of LMP7 in human 20S immunoproteasome using Ac-ANW-AMC as substrate after 1 hr by fluorescence based microplate reader analysis.

In assay [4] the target is T3, Proteasome Macropain subunit MB1 (Homo sapiens, UniProt P28074).
T3 sequence (P28074 whole entry): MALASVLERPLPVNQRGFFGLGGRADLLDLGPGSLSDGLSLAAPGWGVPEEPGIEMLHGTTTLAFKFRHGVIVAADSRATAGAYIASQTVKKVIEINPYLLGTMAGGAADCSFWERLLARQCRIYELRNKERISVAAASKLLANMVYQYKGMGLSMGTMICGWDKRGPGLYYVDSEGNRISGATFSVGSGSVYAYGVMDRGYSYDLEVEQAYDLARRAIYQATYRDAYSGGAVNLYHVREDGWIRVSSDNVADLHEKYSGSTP
Put plainly: Inhibition of Beta5 in human 20S […] usingAc-WLA-AMC as substrate after 1 hr by fluorescence based microplate reader analysis.

The target in assay [5] is T4, Proteasome subunit beta type-9 (Homo sapiens) (UniProt P28065).
T4 sequence (whole entry): T1 sequence (P28065 whole entry)
Put plainly: Inhibition of LMP2 subunit in human DLD1 cells over expressing ABCB1 at 1 uM using Ac-PAL-AMC as substrate incubated for 4 hrs. Particulars: DLD-1. Type of assay: cell-based.

Assay [6] deals with T4, Proteasome subunit beta type-9 (Homo sapiens). Put plainly: Inhibition of immunoproteasome LMP2 subunit in human DLD1 cells over expressing ABCB1 at 3 uM using Ac-PAL-AMC as substrate incubated for 4 hrs in presence of reversin-121. Type of assay: cell-based. Particulars: DLD-1.

As to `CC(=O)NCC(=O)N1CCC[C@H]1C(=O)N[C@@H](Cc1ccc(NC(=O)c2ccccc2)cc1)C(=O)N[C@@H](CC(C)C)C(=O)[C@@]1(C)CO1`, the IC50 was 5080 nM in assay [1] and 72 nM in assay [2].

For `CC(C)C[C@H](NC(=O)[C@H](Cc1ccccc1)NC(=O)[C@@H]1CCCN1C(=O)CNC(=O)c1cccc(O)n1)C(=O)[C@@]1(C)CO1`, the IC50 in assay [1] is above 10000 nM; in assay [2], 143 nM.

Consider `CC(=O)NCC(=O)N1CCC[C@H]1C(=O)N[C@@H](Cc1cccc2ccccc12)C(=O)N[C@@H](CC(C)C)C(=O)[C@@]1(C)CO1`, for which the IC50 in assay [1] is above 10000 nM; in assay [2], 29.7 nM.

As for `CC(=O)NCC(=O)N1CC(F)(F)C[C@H]1C(=O)N[C@@H](Cc1ccccc1)C(=O)N[C@@H](CC(C)C)C(=O)[C@@]1(C)CO1`, the IC50 in assay [1] was above 10000 nM; in assay [2], 71.8 nM.

For the compound `Cc1cc(C(=O)NCC(=O)N2CCC[C@H]2C(=O)N[C@@H](CCc2ccccc2)C(=O)N[C@@H](CC(C)C)C(=O)[C@@]2(C)CO2)no1`, the IC50 in assay [1] is 10000 nM; in assay [2], 132 nM.

`Cc1ncc(C(=O)NCC(=O)N2CCC[C@H]2C(=O)N[C@@H](Cc2ccccc2)C(=O)N[C@@H](CC(C)C)C(=O)[C@@]2(C)CO2)s1`: the IC50 in assay [1] was above 10000 nM; in assay [2], 106 nM.

For `CC(=O)NCC(=O)N1CCC[C@H]1C(=O)N[C@@H](Cc1ccccc1)C(=O)N[C@@H](CC(C)C)C(=O)[C@]1(C)CO1`, the IC50 in assay [3] and in assay [4] was above 10000 nM in each case.

In the case of `CC(C)C[C@H](NC(=O)[C@H](Cc1ccccc1)NC(=O)[C@@H]1CCCN1C(=O)CNC(=O)C(F)(F)F)C(=O)[C@@]1(C)CO1`, the IC50 in assay [1] was above 10000 nM; in assay [2], 131 nM.

`Cc1ncc(C(=O)NCC(=O)N2CCC[C@H]2C(=O)N[C@@H](CCc2ccccc2)C(=O)N[C@@H](CC(C)C)C(=O)[C@@]2(C)CO2)s1`: the figures for the IC50 in assay [1] and in assay [2] were above 10000 nM and 103 nM, respectively.

Turning to `CC(C)C[C@H](NC(=O)[C@H](Cc1ccccc1)NC(=O)[C@@H]1CCCN1C(=O)c1cccc(O)n1)C(=O)[C@@]1(C)CO1`, the IC50 in assay [1] was above 10000 nM; in assay [2], 1010 nM.

For `CC(=O)NCC(=O)N1CC(=O)C[C@H]1C(=O)N[C@@H](Cc1ccccc1)C(=O)N[C@@H](CC(C)C)C(=O)[C@@]1(C)CO1`, the IC50 in assay [1] was above 10000 nM; in assay [2], 622 nM.

For `CC(=O)NCC(=O)N1CCC[C@H]1C(=O)N[C@@H](CCc1ccccc1)C(=O)N[C@@H](CC(C)C)C(=O)[C@@]1(C)CO1`, the values for the IC50 in assay [1] and in assay [2] were above 10000 nM and 58 nM, respectively.

Consider `CC(=O)NCC(=O)N1CCC[C@H]1C(=O)N[C@@H](Cc1ccc(C(C)(C)C)cc1)C(=O)N[C@@H](CC(C)C)C(=O)[C@@]1(C)CO1`, for which the results for the IC50 in assay [1] and in assay [2] were above 10000 nM and 121 nM, respectively.

`CC(=O)NCC(=O)N1CCC[C@H]1C(=O)N[C@@H](CO)C(=O)N[C@@H](CC(C)C)C(=O)[C@@]1(C)CO1`: the IC50 was above 10000 nM in assay [1] and 120 nM in assay [2].

`CC(C)C[C@H](NC(=O)[C@H](Cc1ccc2ccccc2c1)NC(=O)[C@@H]1CCCN1C(=O)CNC(=O)c1cnccn1)C(=O)[C@@]1(C)CO1`: the IC50 in assay [1] worked out at 5760 nM; in assay [2], 90.1 nM.

On to `CC(=O)NCC(=O)N1C[C@H](F)C[C@H]1C(=O)N[C@@H](Cc1ccccc1)C(=O)N[C@@H](CC(C)C)C(=O)[C@@]1(C)CO1`, for which the IC50 in assay [1] was above 10000 nM; in assay [2] it was 151 nM.

As to `CC(=O)NCC(=O)N1CCC[C@H]1C(=O)N[C@@H](Cc1ccccc1)C(=O)N[C@@H](CC1CCCCC1)C(=O)[C@@]1(C)CO1`, the IC50 is above 10000 nM in assay [1] and 201 nM in assay [2].

As for `CC(=O)NCC(=O)N1CCC[C@H]1C(=O)N[C@@H](Cc1ccc2ccccc2c1)C(=O)N[C@@H](CC(C)C)C(=O)[C@@]1(C)CO1`, the IC50 in assay [1] was above 10000 nM; in assay [2], 33.5 nM.

Consider `CC(C)C[C@H](NC(=O)[C@H](Cc1ccccc1)NC(=O)[C@@H]1CCCN1C(=O)CN1CCOCC1=O)C(=O)[C@@]1(C)CO1`, for which the half-maximal inhibitory concentration (IC50) was above 10000 nM in assay [1] and 1040 nM in assay [2].

On to `COc1cnc(C(=O)NCC(=O)N2CCC[C@H]2C(=O)N[C@@H](Cc2ccccc2)C(=O)N[C@@H](CC(C)C)C(=O)[C@@]2(C)CO2)cn1`, for which the IC50 is above 10000 nM in assay [1] and 111 nM in assay [2].

As to `CC(=O)NCC(=O)N1CC[C@H]1C(=O)N[C@@H](Cc1ccccc1)C(=O)N[C@@H](CC(C)C)C(=O)[C@@]1(C)CO1`, the IC50 was above 10000 nM in assay [1] and 100 nM in assay [2].

For `Cc1ncc(C(=O)NCC(=O)N2CCC[C@H]2C(=O)N[C@@H](Cc2ccc(-c3ccccc3)cc2)C(=O)N[C@@H](CC(C)C)C(=O)[C@@]2(C)CO2)s1`, the IC50 in assay [1] worked out at 10000 nM; in assay [2], 115 nM. The inhibition result in assay [5] was “Active”.

Regarding `CC(=O)NCC(=O)N1CCC[C@H]1C(=O)N[C@@H](Cc1ccc(F)cc1)C(=O)N[C@@H](CC(C)C)C(=O)[C@@]1(C)CO1`, the IC50 in assay [1] was above 10000 nM; in assay [2] it was 82 nM.

For the compound `CCc1ccc(C[C@H](NC(=O)[C@@H]2CCCN2C(=O)CNC(C)=O)C(=O)N[C@@H](CC(C)C)C(=O)[C@@]2(C)CO2)cc1`, the IC50 in assay [1] was above 10000 nM; in assay [2] it was 134 nM.

In the case of `CC(=O)NCC(=O)N1CCC[C@H]1C(=O)N[C@@H](Cc1ccc(-c2ccccc2)cc1)C(=O)N[C@@H](CC(C)C)C(=O)[C@@]1(C)CO1`, the values for the IC50 in assay [1] and in assay [2] were 5300 nM and 21.7 nM, respectively.

With `CC(=O)NCC(=O)N1CCC[C@H]1C(=O)N[C@@H](Cc1ccc(NC(=O)CN2CCOCC2)cc1)C(=O)N[C@@H](CC(C)C)C(=O)[C@@]1(C)CO1`, the IC50 in assay [1] is above 10000 nM; in assay [2], 90.9 nM.

In the case of `CC(C)C[C@H](NC(=O)[C@H](CCc1ccccc1)NC(=O)[C@@H]1CCCN1C(=O)CNC(=O)c1cnccn1)C(=O)[C@@]1(C)CO1`, the results for the IC50 in assay [1] and in assay [2] were above 10000 nM and 131 nM, respectively. For the same compound, the inhibition entry in assay [5] was “Active”.

As to `Cc1ncc(C(=O)NCC(=O)N2CCC[C@H]2C(=O)N[C@@H](Cc2ccc3ccccc3c2)C(=O)N[C@@H](CC(C)C)C(=O)[C@@]2(C)CO2)s1`, the half-inhibitory concentration (IC50) in assay [1] is above 10000 nM; in assay [2] it was 183 nM.

As for `CC(=O)NCC(=O)N1CCC[C@H]1C(=O)N[C@@H](Cc1ccncc1)C(=O)N[C@@H](CC(C)C)C(=O)[C@@]1(C)CO1`, the IC50 turned out to be 10000 nM in assay [1] and 122 nM in assay [2].

Turning to `CC(=O)NCC(=O)N1CCC[C@H]1C(=O)N[C@@H](Cc1ccccc1)C(=O)N[C@@H](CC(C)C)C(=O)[C@@]1(C)CO1`, the IC50 in assay [1], in assay [3] and in assay [4] was above 10000 nM in each case. Further, in assay [5], the inhibition entry is “inactive”. Further, the inhibition result in assay [6] is “Active”.

Regarding `CC(=O)NCC(=O)N1CCCC[C@H]1C(=O)N[C@@H](Cc1ccccc1)C(=O)N[C@@H](CC(C)C)C(=O)[C@@]1(C)CO1`, the IC50 amounted to 1310 nM in assay [1] and 123 nM in assay [2].

For `CC(=O)NCC(=O)N1CCC[C@H]1C(=O)N[C@@H](Cc1ccccc1)C(=O)N[C@@H](Cc1ccccc1)C(=O)[C@@]1(C)CO1`, the results for the IC50 in assay [1] and in assay [2] were above 10000 nM and 342 nM, respectively.

With `CCCC[C@H](NC(=O)[C@@H]1CCCN1C(=O)CNC(C)=O)C(=O)N[C@@H](CC(C)C)C(=O)[C@@]1(C)CO1`, the IC50 in assay [1] was above 10000 nM; in assay [2] it was 120 nM.

For `CC(=O)NCC(=O)N1CCC[C@@]1(C)C(=O)N[C@@H](Cc1ccccc1)C(=O)N[C@@H](CC(C)C)C(=O)[C@@]1(C)CO1`, the IC50 was above 10000 nM in assay [1] and 152 nM in assay [2].

For `CC(=O)NCC(=O)N1CCC[C@H]1C(=O)N[C@@H](Cc1ccc(NC(=O)c2cnccn2)cc1)C(=O)N[C@@H](CC(C)C)C(=O)[C@@]1(C)CO1`, the results for the IC50 in assay [1] and in assay [2] were above 10000 nM and 33.2 nM, respectively.

As for `CC(C)C[C@H](NC(=O)[C@H](Cc1ccc(-c2ccccc2)cc1)NC(=O)[C@@H]1CCCN1C(=O)CNC(=O)c1cnccn1)C(=O)[C@@]1(C)CO1`, the IC50 worked out at 10000 nM in assay [1] and 62.8 nM in assay [2].

Take `CC(C)C[C@H](NC(=O)[C@H](Cc1ccccc1)NC(=O)[C@@H]1CCCN1C(=O)CNS(C)(=O)=O)C(=O)[C@@]1(C)CO1`: the IC50 is above 10000 nM in assay [1] and 115 nM in assay [2].

On to `CC(C)C[C@H](NC(=O)[C@H](Cc1ccccc1)NC(=O)[C@@H]1CCCN1C(=O)CN1CCOCC1)C(=O)[C@@]1(C)CO1`, for which the IC50 in assay [1] was above 10000 nM; in assay [2], 1220 nM.
